From patent US20040133938A1, “Use of lipoic acid in plant culture media” (priority 2002, published 2004)

What was measured:
[1] = system: MicroTom cotyledon explants; experiment: Tissue browning severity on Agrobacterium-inoculated MicroTom cotyledon explants; type: cell-based, Lycopersicon esculentum; conditions: after 5 days on selection media
Method: This example describes the use of lipoic acid in an Agrobacterium-based tomato transformation process. MicroTom (a cultivar of tomato species: Lycopersicon esculentum) seeds from Tomato Growers (Ball Seed Co., West Chicago, Ill. USA) were surface-sterilized by first soaking for 10 min in sterile deionized water, removing the water, and then adding enough 70% ethanol to immerse the seeds for 1 min while stirring vigorously and then aspirating the ethanol. The seeds were rinsed 2× with sterile deionized water and then soaked in 25% Chlorox with 1-2 drops of Tween 20 for 10 min while stirring frequently. The seeds were rinsed 3× with sterile deionized water. The seeds were germinated in phytatrays containing Davis Germination medium (4.3 g/L MS salts, 2 ml/L Gamborg's B-5 500× salts, 20 g/L sucrose and 10 g/L agar) (approximately 120 seeds/container), and the phytatrays were wrapped with aluminum foil. The phytatray cultures were maintained at 28° C. under the dark for 5 days. After 5 days, the phytatray cultures were unwrapped and grown at 24° C. under a 16 h photoperiod for about 44 h.
(§1) Cotyledon explants were isolated from seedlings 7 days after sowing seeds on Davis Germination medium. Cotyledon explants were prepared by bathing them in 6 mL of TXD liquid medium (4.3 g/L MS salts, 2 mL/L Gamborg's B-5 500× salts, 4 mg/L pCPA (p-chlorophenoxyactic acid), 0.005 mg/L kinetin, and 30 g/L sucrose) to prevent desiccation and trimming them at both ends using a #15 feather blade. Immediately after the trimming, the cotyledon explants were gently placed on “feeder plates” containing UC2PC medium (2.2 g/L MS salts, 2.2 mL/L, Gamborg's B-5 500× salts, 0.2 mg/L 2,4-D, 4 mg/L pCPA, 0.1 mg/L kinetin, 30 g/L sucrose, 0.2 g/L potassium phosphate, 10 g/L agar, 8 mL/L acetosyringone (4.91 mg/mL), and 4 mL galacturonic acid (53.05 mg/mL)). The “feeder plates” are made by overlaying 2 mL of tobacco suspension cells and a sterile Whatman filter on the plates containing UC2PC medium. The cotyledon explants were gently poked with a sharp forceps (ASIM5311, Stainless French, made in Switzerland). Usually six to ten pokes were made per explant depending the size of cotyledons. Right after poking, the cotyledons were inoculated with Agrobacterium containing pMON15715 (FIG. 1) by adding 3 mL of the adjusted Agrobacterium solution on top of the cotyledons. The plates were incubated for 10 min at room temperature, and the Agrobacterium solution was aspirated with a sterile pipette. The cotyledons were then co-cultured for 2 days at 23-24° C. under a 16-h photoperiod. The co-culture plates were placed in plastic bags to keep the humidity, which is preferable for MicroTom growth.
[…] Three to four weeks after the induction stage, the cotyledons formed buds or shoots. Cotyledons with buds or shoots were separated by individual event and transferred to, shoot elongation medium E2 (SI-2 medium without IAA), supplemented with 100 mg/L kanamycin for two to four weeks. All culture plates were placed in a culture box, placed inside a plastic bag, and cultured at 23-24° C. under a 16 h photoperiod.
Evaluation of plants after transformation with pMON15715 (FIG. 1) as described above was carried out in multiple ways. About five days after selection, tissue browning severity within and around the poked region on cotyledon explants was measured under a dissecting microscope. Low tissue browning severity was determined as less than 30% of the pokes made on each cotyledon explant that produced browning tissue and the high tissue browning severity was determined as more than 30% of the pokes made on each explant that generated browning tissue 5 days after culturing on selection medium. All the treatments of lipoic acid at concentrations of 5, 10, 50 and 100 μM had 1.5- to 1.8-fold increases of the percentage of explants scored as low tissue browning severity, respectively, compared to the treatment without lipoic acid (Table 1).

[2] = system: MicroTom cotyledon explants; experiment: Transient GUS expression in MicroTom cotyledon explants; type: cell-based, Lycopersicon esculentum; conditions: for % High transient expression / % Low transient expression / % No transient expression: GUS, after 5 days on selection media
Method: as §1
Two days after co-cultivation, cotyledons were transferred to shoot induction medium SI-2 (4.3 g/L MS salts, 2 mL/L, Gamborg's B-5 500× salts, 30 g/L sucrose, 10 g/L agar, 500 mg/L carbenicillin, 100 mg/L cefotaxime, 0.1 mg/L IAA, and 2 mg/L zeatin riboside) supplemented with 10 μM of lipoic acid and 100 mg/L kanamycin. Three to four weeks after the induction stage, the cotyledons formed buds or shoots. Cotyledons with buds or shoots were separated by individual event and transferred to, shoot elongation medium E2 (SI-2 medium without IAA), supplemented with 100 mg/L kanamycin for two to four weeks. All culture plates were placed in a culture box, placed inside a plastic bag, and cultured at 23-24° C. under a 16 h photoperiod.
At the same time the tissue browning severity was measured, transient expression of the gus gene was scored. High transient expression was defined as an explant having more than 30% of the pokes that produced GUS blue spots. Low transient expression was defined as an explant having less than 30% of the pokes that produced GUS blue spots about 5 days after culturing on selection medium. Nontransient expression was determined as an explant having no GUS blue spot. With the lipoic acid treatments at the concentrations of 10 and 50 μM, the percentage of explants having high transient expression doubled from 30% (non-lipoic acid treatment) up to 60.9% (Table 2). […] When lipoic acid was used in the selection process at the concentrations of 10, 50 and 100 μM, 100% of explants transiently expressed the GUS gene, but without lipoic acid or lipoic acid at the concentration of 5 μM, 20% and 9.5% of explants had no GUS transient expression.

## O=C(O)CCCCC1CCSS1 (stereo not shown) [lipoic acid, 1,2-dithiolane-3-pentanoic acid]
[1]; 5 μM lipoic acid
  % high browning: 34.9%
  % low browning: 65.1%
[1]; 10 μM lipoic acid
  % high browning: 33.9%
  % low browning: 66.1%
[1]; 50 μM lipoic acid
  % high browning: 34.4%
  % low browning: 65.6%
[1]; 100 μM lipoic acid
  % high browning: 46%
  % low browning: 54%
[2]; 5 μM lipoic acid
  % High transient expression: 42.9%
  % Low transient expression: 47.6%
  % No transient expression: 9.5%
[2]; 10 μM lipoic acid
  % High transient expression: 60.9%
  % Low transient expression: 39.1%
  % No transient expression: 0%
[2]; 50 μM lipoic acid
  % High transient expression: 56.5%
  % Low transient expression: 43.5%
  % No transient expression: 0%
[2]; 100 μM lipoic acid
  % High transient expression: 34.8%
  % Low transient expression: 65.2%
  % No transient expression: 0%
[2]; lipoic acid at 10, 50 and 100 μM in the selection process
  % of explants that transiently expressed the GUS gene: 100%
[2]; summary, MicroTom transformation
  increase of the percentage of explants having high level of transient expression: 2 fold
